# Experiments:
# NOD2 mRNA = test: qRT-PCR of NOD2 mRNA in HFFs; type: cell-based, Human; settings: for NOD2 induction by MDP: HCMV-infected, 36 hpi
# Protocol: Total RNA was isolated from cells using RNAeasy Mini kit (Qiagen, Georgetown, Md.) according to manufacturer's instructions. RevertAid first strand cDNA synthesis kit (Fermentas life sciences, Cromwell Park, Md.) was used to synthesize first strand cDNA from total RNA using oligo-dT primers. Negative reverse-transcriptase (−RT) reactions were included to ensure the specificity of qRT-PCR reactions. Synthesis of first strand cDNA from mRNA template was carried out at 42° C. for 1 h. Quantitative RT-PCR was performed using specific primers and SYBR green (Fermentas life science) with two-step cycling protocol (95° C. for 15 s, 60° C. for 1 min). All reactions were performed in triplicates and GAPDH was used as internal control. The expression level of the tested genes was normalized to the expression of GAPDH.
# [1] = tested on: TANK-binding kinase (TBK1); test: Western blot of NOD2 downstream signaling proteins; type: cell-based, Human; settings: HCMV-infected, MOI 0.1, MDP treatment, 36 hpi
# Protocol: (§1) Cell lysates containing equivalent amount of proteins were mixed with an equal volume of sample buffer (125 mM Tris-HCL, pH 6.8, 4% SDS, 20% glycerol and 5% β-mercaptoethanol) and boiled at 100° C. for 10 min. Denatured proteins were resolved in Tris-glycine polyacrylamide gels (10-12%) and transferred to polyvinylidine difluoride (PVDF) membranes (Bio-Rad Laboratories, Hercules, Calif.) by electroblotting. Membranes were incubated in blocking solution [5% w/v non-fat dry milk and 0.1% Tween-20 in PBS (PBST)] for 1 h, washed with PBST, and incubated with antibody at 4° C. overnight. Membranes were washed with PBST and incubated with horseradish peroxidase-conjugated secondary antibodies in PBST for 1 h at room temperature. Following washing with PBST, protein bands were visualized by chemiluminescence using SuperSignal West Dura and Pico reagents (Pierce Chemical, Rockford, Ill.). Antibodies for HCMV proteins were used at 1:2000 and included: mouse monoclonal anti-HCMV IE1 & IE2 (MAB810, Millipore, Billerica, Mass.), mouse monoclonal anti-HCMV UL83 (pp65, Vector Laboratories Inc., Burlingame, Calif.), and mouse monoclonal anti-pp52 (UL44, Santa Cruz Biotechnology, Santa Cruz, Calif.). […]
# [2] = tested on: HCMV proteins (IE1/2, pp65); test: Western blot of HCMV proteins in infected HFFs; type: cell-based, human cytomegalovirus
# Protocol: as §1, with “Calif.). Rabbit polyclonal anti human-NOD2 antibody (H-300, 1:2000), rabbit polyclonal anti-RIPK2 (1:5000), mouse monoclonal anti-NF-KB (p65, 1:1000), rabbit polyclonal anti-IRF3 (1:1000) and mouse monoclonal anti-IRF7 (1:1000) were from Santa Cruz. Rabbit monoclonal anti-Histone H3 (1:2000), rabbit monoclonal anti-pERK1/2 (1:5000), mouse monoclonal anti-total ERK (1:2000), rabbit monoclonal anti-pIκBα (1:2000), mouse monoclonal anti-IκBα, rabbit monoclonal anti-pTBK1 (Ser172), and rabbit monoclonal anti-TBK1 (1:1000) were from Cell Signaling Technology, Beverly, Mass. Horseradish peroxidase (HRP)-conjugated anti-rabbit IgG was from Cell Signaling.” for “Calif.).”
# Quantitative analysis of proteins detected by immunoblotting was performed using ImageJ 1.48v software (NIH) by determining relative band intensities of individual bands. […]
smiles,measurement,setting,value
"CC(=O)N[C@H]1C(O)O[C@H](CO)[C@@H](O)[C@@H]1O[C@H](C)C(=O)N[C@@H](C)C(=O)N[C@H](CCC(=O)O)C(N)=O (mixture of isomers) [MDP, Muramyl dipeptide]",NOD2 induction by MDP,"NOD2 mRNA; MOI 0.1, MDP after infection",6.5 fold
same,NOD2 induction by MDP,"NOD2 mRNA; MOI 1, MDP after infection",2.5 fold
same,NOD2 mRNA induction,NOD2 mRNA; MDP pretreatment 72 h then HCMV Towne MOI 1 for 24 h (infection only 50-fold),265 fold
same,induction of NOD2 mRNA,"NOD2 mRNA; non-infected HFFs, MDP 10 μg/mL, 36 h",4 fold
same,induction of NOD2 mRNA,"NOD2 mRNA; non-infected cells, 72 h MDP treatment then 24 h medium",3 fold
same,phosphorylation of TBK1,[1],increased phosphorylation
same,decrease in pp65 expression,"[2]; MDP treatment after infection, MOI 0.1, 96 hpi",approximately 75%
same,reduction in pp65 expression,"[2]; MDP treatment after infection, higher MOI (MOI 1), 96 hpi",40%
same,"HCMV replication, dose response","[2]; MOI 0.1, IE1/2 and pp65 expression after 4 days",suppressed HCMV replication (MOI 0.1) in a dose-dependent manner

# Reference: patent US20170021014A1, “VACCINE ADJUVANTS FOR CYTOMEGALOVIRUS PREVENTION AND TREATMENT” (THE JOHNS HOPKINS UNIVERSITY, priority 2015, published 2017)
